Common to all, as to assay: Opioid Receptor Binding Assay
Test [1] addresses Delta-type opioid receptor (Homo sapiens, UniProt P41143).
The target in test [2] is Kappa-type opioid receptor (Homo sapiens, UniProt P41145).
The target in another test is Mu-type opioid receptor (Homo sapiens, UniProt P35372).

Square brackets hold non-standard residues; d marks the D form. Peptide text beside a SMILES is read from it. * marks the point of attachment. Pyrrolidino(3-NH2-3-COOH) = NC1(C(=O)O)CCN(*)C1; dTic = O=C(O)[C@H]1Cc2ccccc2CN1

Our source for the IC50 values is BindingDB's records for patent US12215173 (Humanwell Pharmaceutical US, 2025).

By IC50 is commonly meant the concentration that inhibits the measured activity by half. Higher therefore signals a need for much substance.

Chain of Delta-type opioid receptor (P41143 whole entry): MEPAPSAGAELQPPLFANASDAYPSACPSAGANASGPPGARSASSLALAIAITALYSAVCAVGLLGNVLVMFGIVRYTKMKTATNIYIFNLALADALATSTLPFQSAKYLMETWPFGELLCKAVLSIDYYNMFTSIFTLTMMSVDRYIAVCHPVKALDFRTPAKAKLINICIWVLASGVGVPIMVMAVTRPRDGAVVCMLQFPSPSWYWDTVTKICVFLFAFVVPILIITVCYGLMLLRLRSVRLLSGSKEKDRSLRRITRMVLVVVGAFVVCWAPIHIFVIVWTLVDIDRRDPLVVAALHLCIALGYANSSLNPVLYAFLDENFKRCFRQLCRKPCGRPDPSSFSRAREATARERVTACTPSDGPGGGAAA
Chain of Mu-type opioid receptor (P35372 whole entry): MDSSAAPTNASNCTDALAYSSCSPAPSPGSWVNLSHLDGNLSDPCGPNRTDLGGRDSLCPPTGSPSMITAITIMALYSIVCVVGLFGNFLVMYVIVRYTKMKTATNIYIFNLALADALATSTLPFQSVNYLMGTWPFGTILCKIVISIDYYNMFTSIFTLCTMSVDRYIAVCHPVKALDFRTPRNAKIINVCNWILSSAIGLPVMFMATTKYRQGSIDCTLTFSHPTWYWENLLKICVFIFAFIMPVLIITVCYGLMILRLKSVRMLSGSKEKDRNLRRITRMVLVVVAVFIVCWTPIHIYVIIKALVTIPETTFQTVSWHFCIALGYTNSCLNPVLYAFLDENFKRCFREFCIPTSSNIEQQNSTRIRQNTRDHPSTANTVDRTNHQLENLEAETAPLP
Chain of Kappa-type opioid receptor (P41145 whole entry): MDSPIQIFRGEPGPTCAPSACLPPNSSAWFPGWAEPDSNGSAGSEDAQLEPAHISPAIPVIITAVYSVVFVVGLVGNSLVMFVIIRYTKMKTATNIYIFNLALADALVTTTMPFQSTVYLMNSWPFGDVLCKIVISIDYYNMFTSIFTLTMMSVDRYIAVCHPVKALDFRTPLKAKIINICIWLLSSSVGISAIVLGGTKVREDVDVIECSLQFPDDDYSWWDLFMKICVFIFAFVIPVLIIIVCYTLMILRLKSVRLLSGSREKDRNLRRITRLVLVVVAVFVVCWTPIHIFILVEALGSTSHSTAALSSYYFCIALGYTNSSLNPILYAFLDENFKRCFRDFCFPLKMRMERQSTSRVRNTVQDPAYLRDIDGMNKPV

Turning to `CC(C)C[C@@H](NC(=O)[C@@H](Cc1ccccc1)NC(=O)[C@H](N)Cc1ccccc1)C(=O)N[C@H](CCCCN)C(=O)NCc1cccc(C(=O)O)n1` [US12215173, Compound 13-6], the results for the half-maximal inhibitory concentration (IC50) (in test [1]; in test [2]; at Mu-type opioid receptor) were more than 10 µM, 0.00945 µM and more than 10 µM, respectively.
`CC(C)C[C@@H](NC(=O)[C@@H](Cc1ccccc1)NC(=O)[C@H](N)Cc1ccccc1)C(=O)N[C@H](CCCCN)C(=O)NCCC[C@H](N)C(=O)O` [US12215173, Compound 13-44]: the concentration for half-maximal inhibition (IC50) in test [1] is more than 10 µM; in test [2] it was 0.00046 µM; at Mu-type opioid receptor it was more than 10 µM.
`CC(C)C[C@@H](NC(=O)[C@@H](Cc1ccccc1)NC(=O)[C@H](N)Cc1ccccc1)C(=O)N[C@H](CCCCN)C(=O)N1CCC(O)(CO)CC1` [US12215173, Compound 13-65]: the IC50 was more than 10 µM in test [1], 0.00045 µM in test [2] and more than 10 µM on Mu-type opioid receptor.
`COC(=O)C1(N)CCN(C(=O)[C@@H](CCCCN)NC(=O)[C@H](NC(=O)[C@@H](Cc2ccccc2)NC(=O)[C@H](N)Cc2ccccc2)C(C)(C)C)CC1` [US12215173, Compound 100]: the half-inhibitory concentration (IC50) in test [1] was more than 10 µM; in test [2], 0.013 µM; at Mu-type opioid receptor it was more than 10 µM.
Regarding `COC(=O)C1(N)CCN(C(=O)[C@@H](CCCCN)NC(=O)[C@H](NC(=O)[C@@H](Cc2ccccc2)NC(=O)[C@H](N)Cc2ccccc2)C(C)(C)C)C1` (stereo partly specified) [US12215173, Compound 103], the IC50 was more than 10 µM in test [1], 0.0144 µM in test [2] and more than 10 µM on Mu-type opioid receptor.
In test [2], `CC(C)C[C@@H](NC(=O)[C@@H](Cc1ccccc1)NC(=O)[C@H]1Cc2ccccc2CN1)C(=O)N[C@H](CCCCN)C(=O)N1CCC(N)(C(=O)O)C1` (stereo partly drawn) [US12215173, Compound 169] (H-[dTic][dF][dL][dK]-{Pyrrolidino(3-NH2-3-COOH)}) registered an IC50 of 0.0888 µM.
Turning to `COC(=O)C1(N)CCN(C(=O)[C@@H](CCCCN)NC(=O)[C@@H](CC(C)C)NC(=O)[C@@H](Cc2ccccc2)NC(=O)[C@H]2Cc3ccccc3CN2)CC1` [US12215173, Compound 171], the IC50 in test [1] is more than 10 µM; in test [2], 0.00083 µM; at Mu-type opioid receptor, more than 10 µM.
Take `CC(C)C[C@@H](NC(=O)[C@@H](Cc1ccccc1)NC(=O)[C@H]1Cc2ccccc2CN1)C(=O)N[C@H](CCCCN)C(=O)N1CCC(N)(C(=O)O)CC1` [US12215173, Compound 172]: the IC50 was more than 10 µM in test [1], 0.00402 µM in test [2] and more than 10 µM on Mu-type opioid receptor.
In the case of `COC(=O)C1(N)CCN(C(=O)[C@@H](CCCCN)NC(=O)[C@@H](CC(C)C)NC(=O)[C@@H](Cc2ccccc2)NC(=O)[C@H](N)Cc2ccc(F)cc2)C1` (stereo partly specified) [US12215173, Compound 181], the IC50 in test [1] is more than 10 µM; in test [2] it was 0.0004 µM; on Mu-type opioid receptor, more than 10 µM.
With `COC(=O)C1(N)CCN(C(=O)[C@@H](CCCCN)NC(=O)[C@@H](CC(C)C)NC(=O)[C@@H](Cc2ccccc2)NC(=O)[C@H](N)Cc2ccc(F)cc2)CC1` [US12215173, Compound 184], the concentration for half-maximal inhibition (IC50) in test [1] is more than 10 µM; in test [2] it was 0.00025 µM; at Mu-type opioid receptor, 8.09 µM.
`COC(=O)C1(N)CCN(C(=O)[C@@H](CCCCN)NC(=O)[C@@H](CC(C)C)NC(=O)[C@@H](Cc2ccccc2)NC(=O)[C@H](N)Cc2ccc(C(F)(F)F)cc2)C1` (stereo partly specified) [US12215173, Compound 194]: the IC50 is more than 10 µM in test [1], 0.00407 µM in test [2] and 7.34 µM at Mu-type opioid receptor.
